How the values were obtained:
A2780 cells = assay: Test for induction of differentiation in A2780 cells (ALP activity, ALPmin); type: cell-based, human; settings: Homo sapiens, 72 h; A2780 cells, 3 days incubation; minimum concentration of the drug inducing increase of ALP activity
Summary of the method: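 A2780 cells seeded at 15,000/well, test compound added in serial dilution the next day. ALP reaction stopped with 3N NaOH and absorbance read at 405 nm; ALPmin is the lowest concentration raising ALP activity.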

| melting point | Structure (SMILES) | minimal effective concentration (A2780 cells) |
| --- | --- | --- |
| 164 to 165 °C | Cc1ccc(COC(=O)NCc2ccc(C(=O)Nc3ccccc3N)cc2)cn1 [Example 57, N-(2-aminophenyl)-4-[N-(6-methylpyridin-3-yl)methoxycarbonylaminomethyl]benzamide] | 3 µM |
| 180 to 185 °C | Nc1ccccc1NC(=O)c1ccc(CNC(=O)OCc2ccc(Cl)nc2)cc1 [Example 59, N-(2-aminophenyl)-4-[N-(6-chloropyridin-3-yl)methoxycarbonylaminomethyl]benzamide] | 3 µM |
| 180 to 183 °C | Nc1ccccc1NC(=O)c1ccc(CNC(=O)OCc2ccncc2)cc1 [Example 60, N-(2-aminophenyl)-4-[N-(pyridin-4-yl)methoxycarbonylaminomethyl]benzamide] | 3 µM |
| 168 to 175 °C | Nc1ccccc1NC(=O)c1ccc(CNC(=O)OCc2cncs2)cc1 [Example 63, N-(2-aminophenyl)-4-[N-(thiazol-5-yl)methoxycarbonylaminomethyl]benzamide] | 3 µM |
| 130 to 135 °C | CN1CCCC(COC(=O)NCc2ccc(C(=O)Nc3ccccc3N)cc2)C1 (centres unmarked) [Example 65, N-(2-aminophenyl)-4-[N-(1-methylpiperidin-3-yl)methoxycarbonylaminomethyl]benzamide] | 3 µM |
| 149 to 151 °C (dec.) | Nc1ccccc1COC(=O)NCc1ccc(C(=O)Nc2ccccc2N)cc1 [Example 71, N-(2-aminophenyl)-4-[N-(2-aminophenyl)methoxycarbonylaminomethyl]benzamide] | 10 µM |
| 149 to 153 °C (dec.) | Nc1cccc(COC(=O)NCc2ccc(C(=O)Nc3ccccc3N)cc2)c1 [Example 73, N-(2-aminophenyl)-4-[N-(3-aminophenyl)methoxycarbonylaminomethyl]benzamide] | 3 µM |
| 162 to 165 °C (dec.) | Cn1cncc1COC(=O)NCc1ccc(C(=O)Nc2ccccc2N)cc1 [Example 74, N-(2-aminophenyl)-4-[N-(1-methylimidazol-5-yl)methoxycarbonylaminomethyl]benzamide] | 10 µM |
| 169 to 170 °C | COc1cncc(COC(=O)NCc2ccc(C(=O)Nc3ccccc3N)cc2)c1 [Example 76, N-(2-aminophenyl)-4-[N-(5-methoxypyridin-3-yl)methoxycarbonylaminomethyl]benzamide] | 1 µM |
| 182 °C | Nc1ccccc1NC(=O)c1ccc(CNC(=O)OCc2cnccn2)cc1 [Example 77, N-(2-aminophenyl)-4-[N-(pyrazin-2-yl)methoxycarbonylaminomethyl]benzamide] | 3 µM |
| 175 to 176 °C | COc1ccc(O)c(NC(=O)c2ccc(CNC(=O)OCc3cccnc3)cc2)c1 [Example 85, N-(2-hydroxy-5-methoxyphenyl)-4-[N-(pyridin-3-yl)methoxycarbonylaminomethyl]benzamide] | 3 µM |
| 154 to 156 °C (dec.) | Nc1ccccc1NC(=O)c1ccc(CNC(=S)OCc2cccnc2)cc1 [Example 88, N-(2-aminophenyl)-4-[N-(pyridin-3-yl)methoxythiocarbonylaminomethyl]benzamide] | 0.1 µM |
| 168 to 170 °C | Nc1ccccc1NC(=O)c1ccc(CCC(=O)NCc2cccnc2)cc1 [Example 97, N-(2-aminophenyl)-4-[2-[N-(3-picolyl)aminocarbonyl]ethyl]benzamide] | 0.1 µM |
| 139 to 141 °C | Nc1ccccc1NC(=O)c1ccc(COC(=O)NCc2cccnc2)cc1 [Example 98, N-(2-aminophenyl)-4-[(pyridin-3-yl)methylaminocarbonyloxymethyl]benzamide] | 0.1 µM |
| 232 to 237 °C | Nc1ccccc1NC(=O)c1ccc(NC(=O)Cc2ccccc2)cc1 [Example 100, N-(2-aminophenyl)-4-(phenylacetylamino)benzamide] | 1 µM |
| 222 to 226 °C | Nc1ccccc1NC(=O)c1ccc(NC(=O)Cc2ccc([N+](=O)[O-])cc2)cc1 [Example 104, N-(2-aminophenyl)-4-[(4-nitrophenylacetyl)amino]benzamide] | 1 µM |
| 177 to 182 °C (dec.) | Nc1ccccc1CC(=O)Nc1ccc(C(=O)Nc2ccccc2N)cc1 [Example 105, N-(2-aminophenyl)-4-[(2-aminophenylacetyl)amino]benzamide] | 1 µM |
| 219 to 226 °C (dec.) | Nc1ccc(CC(=O)Nc2ccc(C(=O)Nc3ccccc3N)cc2)cc1 [Example 106, N-(2-aminophenyl)-4-[(4-aminophenylacetyl)amino]benzamide] | 1 µM |

| melting point | Structure (SMILES) | minimal effective concentration (A2780 cells) |
| --- | --- | --- |
| 140 °C | CN(C)c1ccc(CC(=O)Nc2ccc(C(=O)Nc3ccccc3N)cc2)cc1 [Example 108, N-(2-aminophenyl)-4-[[4-(N,N-dimethylamino)phenylacetyl]amino]benzamide] | 3 µM |
| 182 to 189 °C (dec.) | Cl.Cl.Nc1ccccc1NC(=O)c1ccc(NC(=O)Cc2cccnc2)cc1 [Example 111, N-(2-aminophenyl)-4-[(pyridin-3-yl)acetylamino]benzamide dihydrochloride] | 3 µM |
| 184 to 186 °C | Nc1ccccc1NC(=O)c1ccc(NC(=O)CCc2cccnc2)cc1 [Example 112, N-(2-aminophenyl)-4-[[3-(pyridin-3-yl)propanoyl]amino]benzamide] | 0.1 µM |
| 145 °C (dec.) | Nc1ccccc1NC(=O)c1ccc(NC(=O)CN(Cc2cccnc2)C(=O)C(F)(F)F)cc1 [Example 114, N-(2-aminophenyl)-4-[[N-(pyridin-3-yl)methyl-N-trifluoroacetylamino]acetylamino]benzamide] | 3 µM |
| 160 °C (dec.) | Nc1ccccc1NC(=O)c1ccc(NC(=O)CNCc2cccnc2)cc1 [Example 115, N-(2-aminophenyl)-4-[[N-(pyridin-3-yl)methylamino]acetylamino]benzamide] | 0.01 µM |
| 154 to 155 °C | CN(CC(=O)Nc1ccc(C(=O)Nc2ccccc2N)cc1)Cc1cccnc1 [Example 119, N-(2-aminophenyl)-4-[[N-(pyridin-3-yl)methyl-N-methylamino]acetylamino]benzamide] | 3 µM |
| 175 to 179 °C | Nc1ccccc1NC(=O)c1ccc(NC(=O)COc2cccnc2)cc1 [Example 120, N-(2-aminophenyl)-4-[N-(pyridin-3-yl)oxyacetylamino]benzamide] | 0.3 µM |
| 190 to 194 °C | Nc1ccccc1NC(=O)c1ccc(NC(=O)CCC(=O)c2cccnc2)cc1 [Example 121, N-(2-aminophenyl)-4-[4-(pyridin-3-yl)-1,4-dioxobutylamino]benzamide] | 3 µM |
| 196 °C (dec.) | Nc1ccccc1NC(=O)c1ccc(NC(=O)CC(=O)Nc2cccnc2)cc1 [Example 122, N-(2-aminophenyl)-4-[3-[N-(pyridin-3-yl)amino]-1,3-dioxopropylamino]benzamide] | 0.03 µM |
| 178 to 181 °C (dec.) | Cc1cc(C(=O)Nc2ccccc2N)ccc1NC(=O)COCc1cccnc1 [Example 123, N-(2-aminophenyl)-4-[N-(pyridin-3-yl)methoxyacetylamino]-3-methylbenzamide] | 3 µM |
| 186 to 189 °C | Nc1ccccc1NC(=O)c1ccc(NC(=O)COCc2ccsc2)cc1 [Example 124, N-(2-aminophenyl)-4-[N-(thiophen-3-yl)methoxyacetylamino]benzamide] | 3 µM |
| 180 to 183 °C (dec.) | CN(C(=O)COCc1cccnc1)c1ccc(C(=O)Nc2ccccc2N)cc1 [Example 125, N-(2-aminophenyl)-4-[N-methyl-N-(pyridin-3-yl)methoxyacetylamino]benzamide] | 0.1 µM |
| 171 to 173 °C | Nc1ccccc1NC(=O)c1ccc(NC(=O)COCc2ccccn2)cc1 [Example 126, N-(2-aminophenyl)-4-[N-(pyridin-2-yl)methoxyacetylamino]benzamide] | 3 µM |
| 218 to 220 °C (dec.) | Nc1ccccc1NC(=O)c1ccc(NC(=O)CNC(=O)c2cccnc2)cc1 [Example 127, N-(2-aminophenyl)-4-[N-(N-nicotinoylamino)acetylamino]benzamide] | 0.3 µM |
| 193 to 196 °C | CC(Oc1cccnc1)C(=O)Nc1ccc(C(=O)Nc2ccccc2N)cc1 (centres unmarked) [Example 129, N-(2-aminophenyl)-4-[N-[2-(pyridin-3-yl)oxypropionyl]amino]benzamide] | 1 µM |
| 144 to 148 °C | CC(OCc1cccnc1)C(=O)Nc1ccc(C(=O)Nc2ccccc2N)cc1 (centres unmarked) [Example 131, N-(2-aminophenyl)-4-[N-[2-(pyridin-3-yl)methoxypropionyl]amino]benzamide] | 0.3 µM |
| 239 to 241 °C (dec.) | Nc1ccccc1NC(=O)c1ccc(C(=O)NCc2ccccc2)cc1 [Example 132, N-(2-aminophenyl)-4-(N-benzylamino)carbonylbenzamide] | 10 µM |
| 237 to 240 °C (dec.) | Nc1ccccc1NC(=O)c1ccc(C(=O)NCCc2ccccc2)cc1 [Example 133, N-(2-aminophenyl)-4-[N-(2-phenylethyl)amino]carbonylbenzamide] | 3 µM |

| Structure (SMILES) | melting point | minimal effective concentration (A2780 cells) |
| --- | --- | --- |
| Nc1ccccc1NC(=O)c1ccc(CNC(=O)Oc2ccccc2)cc1 [Example 68, N-(2-aminophenyl)-4-[N-(phenoxycarbonyl)aminomethyl]benzamide] | 174 to 175 °C | 3 µM |

From patent publication US7317028B2, “Cell differentiation inducer” (Schering Aktiengesellschaft, priority 1996, dated 2008)
